Assay results taken from US12485117B2, “Compositions and methods for activating signaling through the CB1 cannabinoid receptor for treating and preventing diseases and disorders characterized by abnormal cellular accumulation of sphingolipids such as sphingomyelin” (Wylder Nation Foundation, priority 2018, dated 2025).

Legend:
wt and ASMko mice = test: Tail Suspension Test; format: in vivo, mouse; conditions: 0.3 mg/kg every three days
Protocol: FIGS. 13A-13C show the effect of PF-04457845 treatment on various behavioral functions. […] (n=14; **p<0.01, *p<0.05).
Treatment started at 7 weeks of age and continued for 8 weeks. PF-04457845 was dissolved in 0.9% NaCl and delivered through oral gavage at a dose of 0.3 mg/kg every three days. We chose this dose based on the studies published by Ahn et al., (J Pharm Exp Ther 2011). Control groups received same volume of 0.9% NaCl without PF-04457845.
Mood alterations were monitored by the Tail Suspension Test (FIG. 13B) and by the Elevated Plus Maze test (FIG. 13C) that give an idea of depressive state and anxiety, respectively. […] PF-04457845 treatment had no effect in the behavior of wt mice.

macrophages = test: Acute toxicity: liver inflammation by F4/80 immunofluorescence (macrophage cell area); format: in vivo, mouse; conditions: ASMko mice
Protocol: We divided wt and ASMko mice of 4.5 months of age in six experimental groups: ASMko control (n=3), ASMko low dose (n=3), ASMko intermediate dose (n=3), ASMko high dose (n=3), wt control (n=3), wt high dose (n=3). PF-04457845, provided as powder, was dissolved in 0.9% NaCl and administered to mice through oral gavage. Vehicle groups received same volume of 0.9% NaCl.
Inflammation was analyzed in the liver by immunofluorescence against the macrophage marker F4/80. Under inflammatory conditions macrophages acquire an amoeboid shape indicative of maximal activation.

SMILES: O=C(Nc1cccnn1)N1CCC(=Cc2cccc(Oc3ccc(C(F)(F)F)cn3)c2)CC1 [PF-04457845]
- behavior in Tail Suspension Test (depressive state) (wt and ASMko mice; ASMko mice): normalized
- behavior in Tail Suspension Test (wt and ASMko mice; wt mice): no effect
- liver macrophage amoeboid morphology / cell area (macrophages; single dose 0.1 mg/kg): did not significantly alter macrophage amoeboid morphology
- liver macrophage cell area (macrophages; single dose 1 mg/kg): remarkably reduced macrophage cell area to levels similar to wt mice
- liver macrophage cell area (macrophages; single dose 5 mg/kg): remarkably reduced macrophage cell area to levels similar to wt mice
